Experimental data published in US20050047997A1, “Method for the evaluation of the efficiency of a therapeutic action upon the human organism” (priority 1997, published 2005).

Tests used:
Assay type in all cases: in vivo, human
[1] = system: arterial pressure; assay: Arterial pressure monitoring in hypertension patients; conditions: monitored every other day
Protocol: (§1) Selected hypertension patients are divided into two groups. The reference group includes 48 patients and the experimental group includes 56 patients. Each group consists of 60% of females, the rest being males. All the patients in the same group differ in age by not more than 1 year. The patients from the experimental group are treated with a hypotensive medication belonging to calcium current blocking agents—Corinfar, (see […], lines from 1 to 3), while those from the reference group are treated with a medication that blocks angiotensin-transforming enzyme (ATE) Prestarium (see FIG. 3, lines from 4 to 6). The period from the beginning of the relapse till the inclusion of the patient into the experiment is chosen to be 2 days. The phase of the disease is selected to be hypertension of medium exacerbation. The prevailing disease localization is its cerebral variant, in other words, the variant characterized by prevailing damage of cerebral vessels. The initial level of the homeostasis characteristics is set by the characteristic of electrolytic homeostasis, i.e. the sodium level, and is equal to 140 mmol/l for both groups. The patients' arterial pressure was monitored every other day, which corresponded to the period of time that is characterized by a significant decrease in arterial pressure under the effect of ATE blocking agent. […]

[2] = Electrolytic homeostasis (sodium level) in treated hypertension patients; conditions: initial level 140 mmol/l
Protocol: as §1

[3] = Homeostasis (lipid metabolism) indicators in treated ulcer patients
Protocol: As a result, each group consists of patients of the same sex or features the same proportion of males and females who differ in age by not more than one year. […] Thus, patients with the stomach ulcer are ranked by the ulcerous defect localization with the accuracy of 1/9th of the stomach sections: cardia, subcardia, upper, middle and lower thirds of the stomach body, angle, anthral and prepyloric sections, pylorus. The initial surface area of the ulcerous defect is measured. Then the current stage (phase) of the disease: acute stage (the stage of ulcer forming), stationary stage or “plateau” and the stage of reparation proper (see FIG. 4) is determined for each patient on the basis of clinical, laboratory and instrumental indications. These phases characterize the period of time that passed since the beginning of relapse (exacerbation or start) of the disease till the patient was included into the clinical experiment. The method in question uses homeostasis indications, particularly those related to lipid metabolism, for the evaluation of the efficiency of the therapeutic action. Based on the above principle, the patients are divided into subgroups according to the following classification: • cholesterol (CS); • high density lipoproteins (HDLP); • low density lipoproteins (LDLP); • very low density lipoproteins (VLDLP); • triglycerides (TG); • atherogenicity factor (AF).
The quantitative number of patients in groups must provide the statistical reliability of the results. In the given example the group treated with a reference medical preparation consisted of 73 patients, while the group treated with the medical preparation that had to be evaluated consisted of 81 patients. The reference group was treated with a medication belonging to proton pump blocking agent (for example, Zerocid), while the experimental group was treated with a medication belonging to antacids (for example, Maalox). If the studied medications are only to be ranked by the efficiency of their action upon the organism rather than compared with each other, placebo can be used as a reference medication. The control time is determined for the selected groups of ulcer patients. The control is performed individually for each ranked experimental group. […]
The initial efficiency criterion was a complete healing of ulcerous defect combined with the dynamics of the change in homeostasis characteristics. The individual temporal norm was represented by a time interval calculated on the basis of individual characteristics of the ulcer healing process that corresponded to the individual characteristics of the homeostasis indications, for instance, to the characteristics of lipid metabolism calculated by the known formulas. […]

[4] = system: ulcerous defect; assay: Ulcer healing (cicatrization of ulcerous defect) in ulcer patients; conditions: compared with the other group
Protocol: As a result, each group consists of patients of the same sex or features the same proportion of males and females who differ in age by not more than one year. […] Thus, patients with the stomach ulcer are ranked by the ulcerous defect localization with the accuracy of 1/9th of the stomach sections: cardia, subcardia, upper, middle and lower thirds of the stomach body, angle, anthral and prepyloric sections, pylorus. The initial surface area of the ulcerous defect is measured. Then the current stage (phase) of the disease: acute stage (the stage of ulcer forming), stationary stage or “plateau” and the stage of reparation proper (see FIG. 4) is determined for each patient on the basis of clinical, laboratory and instrumental indications. These phases characterize the period of time that passed since the beginning of relapse (exacerbation or start) of the disease till the patient was included into the clinical experiment. […]
The quantitative number of patients in groups must provide the statistical reliability of the results. In the given example the group treated with a reference medical preparation consisted of 73 patients, while the group treated with the medical preparation that had to be evaluated consisted of 81 patients. […] The control time is determined for the selected groups of ulcer patients. […]

| SMILES | arterial pressure change as a result of treatment [1] | level of sodium after treatment [2] [µM] | effect upon the atherogenesis and oncogenesis judged from lipid spectrum indications [3] | HDLP indicators ([3]; FIG. 2a, lines 1-16) | atherogenicity factor (AF) ([3]; during treatment) | level of triglycerides (TG) ([3]; during treatment) | cicatrization of ulcerous defects [4] |
| --- | --- | --- | --- | --- | --- | --- | --- |
| CCC[C@H](N[C@@H](C)C(=O)N1[C@H](C(=O)O)C[C@@H]2CCCC[C@@H]21)C(=O)OCC [Prestarium] | decreased by comparable values | 137000 |  |  |  |  |  |
| COC(=O)C1=C(C)NC(C)=C(C(=O)OC)C1c1ccccc1[N+](=O)[O-] [Corinfar] | decreased by comparable values | 146000 |  |  |  |  |  |
| COc1ccc2[nH]c([S+]([O-])Cc3ncc(C)c(OC)c3C)nc2c1 (stereo not drawn) [Zerocid] |  |  | clearly negative effect | decreasing | increasing | increasing | faster |
